Assay results from the supplement of paper PMC10307832.

Assays:
Test in all cases: relative viability (nuclei count vs DMSO), 5 days (fraction); higher = more cells survive
NCI-H1703 = tested on: NCI-H1703
In short: (§1)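 Lung cancer cell lines were seeded in 1536-well plates and dosed by pin tool the next day, with either a single drug or a fixed anchor-drug dose combined with five library-drug doses (not always all listed) spaced in √10 steps. Five days later, one step fixed the cells and stained their nuclei (final 0.05% Triton X-100, 1% formaldehyde, 1 ug/ml Hoechst), and nuclei were counted on 4× images. Relative viability is the nuclei count in treated wells divided by the count in vehicle wells, and each value is the median of duplicate plates.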

IA-LM = tested on: IA-LM
In short: as §1

A549 = tested on: A549
In short: as §1

Calu-6 = tested on: Calu-6
In short: as §1

NCI-H1299 = tested on: NCI-H1299
In short: as §1

EBC-1 = tested on: EBC-1
In short: as §1

NCI-H1563 = tested on: NCI-H1563
In short: as §1

With `O=C(O)CCCCC(CCSCc1ccccc1)SCc1ccccc1` (centres undefined) [CPI-613] + C[C@]1(O)C[C@@H](c2nc(-c3ccc4ccc(-c5ccccc5)nc4c3)c3c(N)nccn32)C1 [Linsitinib] (partner 1 µM) as the compound, how does the relative viability (NCI-H1703; first compound 5 µM) read?
Its relative viability is 1.21.

And the relative viability (NCI-H1703; first compound 15.81 µM)?
The relative viability was 0.809.

And the relative viability (NCI-H1703; first compound 50 µM)?
The relative viability was 0.568.

What about the relative viability (NCI-H1703; first compound 158.11 µM) of the same compound?
Its relative viability is 0.17.

What about the relative viability (NCI-H1703; first compound 500 µM) of the same compound?
Its relative viability is 0.439.

What about the relative viability (IA-LM; first compound 5 µM) of the same compound?
The relative viability was 0.703.

And the relative viability (IA-LM; first compound 15.81 µM)?
Its relative viability is 0.364.

What about the relative viability (IA-LM; first compound 50 µM) of the same compound?
Its relative viability is 0.432.

And the relative viability (IA-LM; first compound 158.11 µM)?
The relative viability was 0.527.

And the relative viability (IA-LM; first compound 500 µM)?
The relative viability was 0.358.

And the relative viability (A549; first compound 5 µM)?
The relative viability was 0.529.

What about the relative viability (A549; first compound 15.81 µM) of the same compound?
Its relative viability is 0.521.

What about the relative viability (A549; first compound 50 µM) of the same compound?
The relative viability was 0.588.

And the relative viability (A549; first compound 158.11 µM)?
The relative viability was 0.722.

And the relative viability (A549; first compound 500 µM)?
Its relative viability is 0.597.

And the relative viability (Calu-6; first compound 5 µM)?
Its relative viability is 1.02.

And the relative viability (Calu-6; first compound 50 µM)?
Its relative viability is 0.726.

What about the relative viability (Calu-6; first compound 158.11 µM) of the same compound?
The relative viability was 0.905.

What about the relative viability (Calu-6; first compound 500 µM) of the same compound?
Its relative viability is 0.658.

And the relative viability (NCI-H1299; first compound 5 µM)?
The relative viability was 0.933.

And the relative viability (NCI-H1299; first compound 15.81 µM)?
Its relative viability is 0.894.

What about the relative viability (NCI-H1299; first compound 50 µM) of the same compound?
Its relative viability is 0.869.

And the relative viability (NCI-H1299; first compound 158.11 µM)?
The relative viability was 1.

What about the relative viability (NCI-H1299; first compound 500 µM) of the same compound?
The relative viability was 0.957.

And the relative viability (EBC-1; first compound 5 µM)?
Its relative viability is 0.874.

And the relative viability (EBC-1; first compound 15.81 µM)?
The relative viability was 0.695.

What about the relative viability (EBC-1; first compound 50 µM) of the same compound?
Its relative viability is 0.593.

And the relative viability (EBC-1; first compound 158.11 µM)?
Its relative viability is 0.786.

What about the relative viability (EBC-1; first compound 500 µM) of the same compound?
Its relative viability is 0.608.

And the relative viability (NCI-H1563; first compound 5 µM)?
Its relative viability is 1.26.

What about the relative viability (NCI-H1563; first compound 15.81 µM) of the same compound?
Its relative viability is 1.21.

And the relative viability (NCI-H1563; first compound 50 µM)?
Its relative viability is 1.23.

What about the relative viability (NCI-H1563; first compound 158.11 µM) of the same compound?
The relative viability was 0.454.

What about the relative viability (NCI-H1563; first compound 500 µM) of the same compound?
Its relative viability is 0.208.

What does the source list for `O=C(O)CCCCC(CCSCc1ccccc1)SCc1ccccc1` (centres undefined) [CPI-613] + Cc1nc(NC(=O)N2CCC[C@H]2C(N)=O)sc1-c1ccnc(C(C)(C)C(F)(F)F)c1 [Alpelisib] (partner 2 µM)?
relative viability (NCI-H1703; first compound 5 µM): 0.381; relative viability (NCI-H1703; first compound 15.81 µM): 0.484; relative viability (NCI-H1703; first compound 50 µM): 0.275; relative viability (NCI-H1703; first compound 158.11 µM): 0.208; relative viability (NCI-H1703; first compound 500 µM): 0.0611; relative viability (IA-LM; first compound 5 µM): 0.614; relative viability (IA-LM; first compound 15.81 µM): 0.679; relative viability (IA-LM; first compound 50 µM): 0.644; relative viability (IA-LM; first compound 158.11 µM): 0.399; relative viability (IA-LM; first compound 500 µM): 0.0122; relative viability (A549; first compound 5 µM): 0.859; relative viability (A549; first compound 15.81 µM): 0.675; relative viability (A549; first compound 50 µM): 0.69; relative viability (A549; first compound 158.11 µM): 0.384; relative viability (A549; first compound 500 µM): 0.0243; relative viability (Calu-6; first compound 5 µM): 0.997; relative viability (Calu-6; first compound 15.81 µM): 0.876; relative viability (Calu-6; first compound 50 µM): 0.891; relative viability (Calu-6; first compound 158.11 µM): 0.174; relative viability (Calu-6; first compound 500 µM): 0.0521; relative viability (NCI-H1299; first compound 5 µM): 1.02; relative viability (NCI-H1299; first compound 15.81 µM): 1.04; relative viability (NCI-H1299; first compound 50 µM): 1.04; relative viability (NCI-H1299; first compound 158.11 µM): 1.09; relative viability (NCI-H1299; first compound 500 µM): 1.08; relative viability (EBC-1; first compound 5 µM): 0.823; relative viability (EBC-1; first compound 15.81 µM): 0.651; relative viability (EBC-1; first compound 50 µM): 0.678; relative viability (EBC-1; first compound 158.11 µM): 0.199; relative viability (EBC-1; first compound 500 µM): 0.0384; relative viability (NCI-H1563; first compound 5 µM): 0.958; relative viability (NCI-H1563; first compound 15.81 µM): 0.938; relative viability (NCI-H1563; first compound 50 µM): 0.939; relative viability (NCI-H1563; first compound 158.11 µM): 0.796; relative viability (NCI-H1563; first compound 500 µM): 0.113

Which relative viability (NCI-H1703; first compound 0.08 µM) does the source give for `O=c1[nH]c2ccccc2n1C1CCN(CCCC(c2ccc(F)cc2)c2ccc(F)cc2)CC1` [Pimozide] + CS(=O)(=O)CCNCc1ccc(-c2ccc3ncnc(Nc4ccc(OCc5cccc(F)c5)c(Cl)c4)c3c2)o1 [Lapatinib] (partner 2 µM) here?
Its relative viability is 1.02.

And the relative viability (NCI-H1703; first compound 0.253 µM)?
Its relative viability is 0.944.

What about the relative viability (NCI-H1703; first compound 0.8 µM) of the same compound?
The relative viability was 0.763.

What about the relative viability (NCI-H1703; first compound 2.53 µM) of the same compound?
The relative viability was 0.958.

What about the relative viability (NCI-H1703; first compound 8 µM) of the same compound?
The relative viability was 0.865.

What about the relative viability (IA-LM; first compound 0.08 µM) of the same compound?
The relative viability was 0.888.

What about the relative viability (IA-LM; first compound 0.253 µM) of the same compound?
The relative viability was 0.987.

And the relative viability (IA-LM; first compound 0.8 µM)?
Its relative viability is 0.64.

And the relative viability (IA-LM; first compound 2.53 µM)?
Its relative viability is 0.761.

What about the relative viability (IA-LM; first compound 8 µM) of the same compound?
The relative viability was 0.893.

What about the relative viability (A549; first compound 0.08 µM) of the same compound?
The relative viability was 0.912.

And the relative viability (A549; first compound 0.253 µM)?
Its relative viability is 1.01.

What about the relative viability (A549; first compound 0.8 µM) of the same compound?
Its relative viability is 0.976.

What about the relative viability (A549; first compound 2.53 µM) of the same compound?
Its relative viability is 0.882.

What about the relative viability (A549; first compound 8 µM) of the same compound?
The relative viability was 0.802.

And the relative viability (Calu-6; first compound 0.08 µM)?
The relative viability was 1.08.

And the relative viability (Calu-6; first compound 0.253 µM)?
The relative viability was 1.07.

What about the relative viability (Calu-6; first compound 0.8 µM) of the same compound?
The relative viability was 1.02.

And the relative viability (Calu-6; first compound 2.53 µM)?
Its relative viability is 1.02.

And the relative viability (Calu-6; first compound 8 µM)?
Its relative viability is 0.933.

And the relative viability (NCI-H1299; first compound 0.08 µM)?
Its relative viability is 0.977.

What about the relative viability (NCI-H1299; first compound 0.253 µM) of the same compound?
Its relative viability is 0.972.

What about the relative viability (NCI-H1299; first compound 0.8 µM) of the same compound?
Its relative viability is 0.91.

What about the relative viability (NCI-H1299; first compound 2.53 µM) of the same compound?
The relative viability was 0.937.

And the relative viability (NCI-H1299; first compound 8 µM)?
Its relative viability is 0.875.

What about the relative viability (EBC-1; first compound 0.08 µM) of the same compound?
The relative viability was 0.208.

What about the relative viability (EBC-1; first compound 0.253 µM) of the same compound?
Its relative viability is 0.213.

And the relative viability (EBC-1; first compound 0.8 µM)?
The relative viability was 0.192.

And the relative viability (EBC-1; first compound 2.53 µM)?
Its relative viability is 0.223.

What about the relative viability (EBC-1; first compound 8 µM) of the same compound?
Its relative viability is 0.162.

And the relative viability (NCI-H1563; first compound 0.08 µM)?
The relative viability was 0.955.

What about the relative viability (NCI-H1563; first compound 0.253 µM) of the same compound?
The relative viability was 0.829.

What about the relative viability (NCI-H1563; first compound 0.8 µM) of the same compound?
The relative viability was 0.933.

And the relative viability (NCI-H1563; first compound 2.53 µM)?
Its relative viability is 0.756.

And the relative viability (NCI-H1563; first compound 8 µM)?
Its relative viability is 0.533.
